PubChem BioAssay AID1963840 (Molecular Pharmacology Branch, DTP, NCI, 2024)
pIC50: −log10 of the molar value.

Test system: 695427-040-R-J1-PDC complex spheroid viability
Experiment: Anticancer human tumor 695427-040-R-J1-PDC patient-derived colon adenocarcinoma cell line growth inhibition [POLQ]
Conditions: for pIC50: curve of first compound; for viability, T/C: stronger effect = lower value
Method: Multicellular complex tumor spheroid response to Polymerase (POL) inhibitors (novobiocin, ART-558, RP6685) in combination with a variety of drugs and investigational agents in selected tumor cell lines
The POL inhibitors (novobiocin, ART-558, and RP6685) were evaluated both individually and in combination with standard of care and investigational anticancer small molecules within a complex spheroid model of solid tumors. . Complex spheroids include a stromal component modeled by human endothelial cells (HUVEC) and fibroblasts modeled by human mesenchymal stem cells (MSCs). The concentration ranges selected for each drug and investigational agent were based upon clinically achievable concentrations if the clinical Cmax of the agent was known.
Compounds. The drugs and investigational agents: novobiocin (NSC847541), ART-558 (NSC835418), RP-6685 (NSC848927), peposertib (NSC802822), ceralasertib (NSC780249), elimusertib (NSC800525), camonsertib (NSC841442), AZD-1390 (NSC803789), olaparib (NSC753686), talazoparib (NSC767125), rucaparib (NSC756644), sotorasib (NSC818433), MRTX-1133 (NSC836407), SN-38 (NSC673596), topotecan (NSC609699), epotoside (NSC141540), doxorubicin (NSC123127), gemcitabine (NSC613327), 5-fluorouracil (NSC19893), paclitaxel (NSC125973), vemurafenib (NSC761431), MSA-2 (NSC828583), SN-011 (NSC837082), adavosertib (NSC754352), prexasertib (NSC758257), carboplatin (NSC241240) and oxaliplatin (NSC266046), were obtained from the National Cancer Institute (NCI) Developmental Therapeutics Program Chemical Repository (21). The FDA-approved anticancer drug set is available from the Developmental Therapeutics Program at https://dtp.cancer.gov/organization/dscb/obtaining/. […] The stock solutions were prepared in dimethyl sulfoxide (DMSO, Sigma-Aldrich, St. Louis, MO, cat. D2650), except for the platinum compounds which were prepared in saline (Quality Biological, Gaithersburg, MD, cat. 114-055-101), at 800-fold the tested concentration and stored at -70 degrees C prior to their use. All drugs and investigational agents were tested over a range starting from a high concentration at or near the clinical Cmax and decreasing in half-log increments. If the clinical Cmax for an agent had not been determined, the highest concentration tested was 10 microM, except for SN-38, which was tested at a high concentration of 1 microM.
Cell Culture. All cells were maintained in an incubator at 37 degrees C and 5% CO2 with 95% humidity. The PDC lines were cultured according to standard operating procedures established by the NCI PDMR (https://pdmr.cancer.gov). Table 3 of the manuscript, lists the cell lines along with the number of the three cell types plated to form the mct-spheroids and media for tumor cell growth. After thawing, all PDC lines, except 997537-175-T-J1-PDC and 415267-285-R-J2-PDC, were cultured in Matrigel-coated flasks prepared with a working solution of 1X Ham's F-12 nutrient mix, without supplementation (Thermo Fisher Scientific, cat. 11765054), 100 U/mL penicillin-streptomycin (Thermo Fisher Scientific, cat. 15140122), and 2.5% Matrigel (Corning Inc., Corning, NY, cat. 354248) for the first three passages. The two PDC lines 997537-175-T-J1-PDC and 415267-285-R-J2-PDC were cultured on uncoated flasks. The 857933-349-R-J2-PDC line was cultured in 6C/Colon 1B media containing advanced DMEM/F-12 (Thermo Fisher Scientific, cat. 12634028), 10 mM HEPES (Thermo Fisher Scientific, cat. 15630080), 1X GlutaMAX supplement (Thermo Fisher Scientific, cat. 35050061), 0.1 mg/mL primocin (InvivoGen, San Diego, CA, cat. ant-pm-2), 10% defined fetal bovine serum, heat inactivated (HyClone Laboratories Inc., Logan, UT, cat. SH30070.03HI), 50% L-WRN conditioned media (ATCC, cat. CRL-3276), 1.25 mM N-Acetyl-L-cysteine (Sigma-Aldrich, cat. A9165), 10 mM nicotinamide (Sigma-Aldrich, cat. N0636), 1X B-27 supplement (Thermo Fisher Scientific, cat. 17504044), 1X N-2 supplement (Thermo Fisher Scientific, cat. […]
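Also: spheroids exposed to compounds for seven days.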
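For viability, T/C in this document: 100% = DMSO vehicle control viability.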

**Q.** Which results are given for `CC[C@@]1(O)C(=O)OCc2c1cc1n(c2=O)Cc2cc3c(CN(C)C)c(O)ccc3nc2-1` + Nc1ccc(C#CCN(C(=O)Cc2ncc(C(F)(F)F)cc2C(F)(F)F)c2ccc(F)cc2)nn1?
**A.** pIC50 (second compound 0.0316 µM): < 7.00; pIC50 (second compound 0.1 µM): < 7.00; pIC50 (second compound 0.316 µM): < 7.00; pIC50 (second compound 1 µM): < 7.00; pIC50 (second compound 3.16 µM): < 7.00; pIC50 (second compound 10 µM): < 7.00; viability, T/C (second compound 0.0316 µM, first compound 0.000316 µM): 110%; viability, T/C (second compound 0.0316 µM, first compound 0.001 µM): 111%; viability, T/C (second compound 0.0316 µM, first compound 0.00316 µM): 102%; viability, T/C (second compound 0.0316 µM, first compound 0.01 µM): 102%; viability, T/C (second compound 0.0316 µM, first compound 0.0316 µM): 115%; viability, T/C (second compound 0.0316 µM, first compound 0.1 µM): 109%; viability, T/C (second compound 0.1 µM, first compound 0.000316 µM): 114%; viability, T/C (second compound 0.1 µM, first compound 0.001 µM): 105%; viability, T/C (second compound 0.1 µM, first compound 0.00316 µM): 104%; viability, T/C (second compound 0.1 µM, first compound 0.01 µM): 100%; viability, T/C (second compound 0.1 µM, first compound 0.0316 µM): 107%; viability, T/C (second compound 0.1 µM, first compound 0.1 µM): 103%; viability, T/C (second compound 0.316 µM, first compound 0.000316 µM): 109%; viability, T/C (second compound 0.316 µM, first compound 0.001 µM): 102%; viability, T/C (second compound 0.316 µM, first compound 0.00316 µM): 108%; viability, T/C (second compound 0.316 µM, first compound 0.01 µM): 97.7%; viability, T/C (second compound 0.316 µM, first compound 0.0316 µM): 108%; viability, T/C (second compound 0.316 µM, first compound 0.1 µM): 101%; viability, T/C (second compound 1 µM, first compound 0.000316 µM): 100%; viability, T/C (second compound 1 µM, first compound 0.001 µM): 97.8%; viability, T/C (second compound 1 µM, first compound 0.00316 µM): 105%; viability, T/C (second compound 1 µM, first compound 0.01 µM): 109%; viability, T/C (second compound 1 µM, first compound 0.0316 µM): 110%; viability, T/C (second compound 1 µM, first compound 0.1 µM): 103%; viability, T/C (second compound 3.16 µM, first compound 0.000316 µM): 107%; viability, T/C (second compound 3.16 µM, first compound 0.001 µM): 111%; viability, T/C (second compound 3.16 µM, first compound 0.00316 µM): 102%; viability, T/C (second compound 3.16 µM, first compound 0.01 µM): 107%; viability, T/C (second compound 3.16 µM, first compound 0.0316 µM): 114%; viability, T/C (second compound 3.16 µM, first compound 0.1 µM): 103%; viability, T/C (second compound 10 µM, first compound 0.000316 µM): 99.5%; viability, T/C (second compound 10 µM, first compound 0.001 µM): 98.3%; viability, T/C (second compound 10 µM, first compound 0.00316 µM): 103%; viability, T/C (second compound 10 µM, first compound 0.01 µM): 89.4%; viability, T/C (second compound 10 µM, first compound 0.0316 µM): 95.3%; viability, T/C (second compound 10 µM, first compound 0.1 µM): 93.9%
